Here are results for 4 molecules from patent US11141406B2, “Pharmaceutical compounds” (REVIRAL LIMITED, priority 2017, dated 2021).

One assay concerns RSV A2, 0709161v. Briefly: RSV plaque reduction assay, alternative conditions (Hep G2 cells). To be noted: human respiratory syncytial virus, HepG2, mean of at least 2 independent experiments, read-out: RSV Plaque Reduction Assay Strain A2 IC50. Format: cell-based. Here is the method: (§1) Plates were scanned and analyzed using the Immunospot S6 UV analyzer, which is equipped with BioSpot analysis software for counting immunostained plaques (virospots). Plaque counts were used to calculate % infection relative to the mean of the spot count (SC) in the virus control wells for RSV. IC50/IC90 values were calculated as 50% or 90% reduction in signal, respectively, by interpolation of inhibition curves fitted with a 4-parameter nonlinear regression with a variable slope in GraphPad 5.0 (Prism). Alternatively, where noted the plaque reduction assay was performed as follows. Hep G2 cells (ECACC, 85011430) were passaged in flasks and seeded in 12-well plates in DMEM containing antibiotics and supplemented with 10% FBS, 24 h prior to inoculation. During inoculation and subsequent incubation, cells were cultured in DMEM containing 2% FBS. 75 plaque forming unit (PFU)/well of RSV (RSV A2, 0709161v) was mixed with 8 serial dilutions of compound. Subsequently, 200 μL of the virus/compound mixtures was added to confluent Hep G2 cell monolayers, for a 2 h infection, with manual shaking every 15 min. Infectious supernatant was then removed and replaced with 2 mL of overlay, comprising 4 parts of DMEM+2% FBS and 1 part 4% CMC, with 0.25% DMSO. The cells were incubated at 37° C. in a humidified 5% CO2 incubator for 5 days.
Overlay was removed, and cells were washed with PBS before fixing with a mixture of 75% acetone 25% methanol for 3 minutes and replacing with fresh PBS. […] Staining was carried out whilst shaking at 37° C. First the plates were blocked with 500 uL PBS-T/2% milk powder per well, for 1 hr. This was then replaced with 250 uL PBS-T/2% milk powder containing a pre-titrated amount of the primary antibody (ab1128), for 90 min. The plates were washed 3×5 min with PBS-T, before addition of rabbit anti-goat horse radish peroxidase (AP106P) in 250 μL PBS-T/2% milk powder, and incubated for 1 hr. […]
Plates were scanned and analysed using the Immunospot S6 Macro analyzer, which is equipped with BioSpot analysis software for counting immunostained plaques. […]

For a further assay, the system named is RSV A2 VR-1540. Nature of the assay: RSV plaque reduction assay, typical conditions (HEp-2 cells). The format is cell-based. The conditions noted are these: human respiratory syncytial virus; for IC90: typical protocol, read-out: RSV Plaque Reduction Assay Strain A2 IC90; for IC50: †: typical protocol, n = 1, read-out: RSV Plaque Reduction Assay Strain A2 IC50. Here is the method:
The plaque reduction assay was typically performed as follows. HEp-2 cells (ATCC, CCL23) were passaged in flasks and seeded in 96-well plates in DMEM containing antibiotics and supplemented with 10% FBS. During inoculation and subsequent incubation, cells were cultured in DMEM containing 3% FBS. 100 plaque forming unit (PFU)/well of RSV (RSV A2 VR-1540) was mixed with ten serial dilutions of compound. Subsequently, 100 μL of the virus/compound mixtures was added to confluent HEp-2 cell monolayers. The cells and virus/compound mixtures were incubated at 35° C. in a humidified 5% CO2 incubator for 1 day.
Cells were washed twice with PBS before adding 50% v % v EtOH/MeOH, and then stored at −20° C. On the day of the staining, fixative was first removed from the plates. Plates were washed 3× with PBS. A pre-titrated amount of the primary antibody was added in 60 μL PBS/2% milk powder, and plates incubated for 1 h at rt. The plates were washed 3× with PBS/0.05% Tween20 before addition of goat anti-mouse horse radish peroxidase in 60 μL PBS/2% milk powder, and incubated for 1 h at rt. Following three wash steps with PBS/0.05% Tween20, 60 μL ready-to-use TrueBlue was added and plates were incubated at it for 10-15 min before adding MilliQ water. Plates were washed once with water, incubated for 30-60 min and after removal of water, air-dried in the dark.
as §1

As to `CCS(=O)(=O)N1CCC(n2c(CN3C(=O)C(F)(F)c4ccccc43)nc3cc(Cl)ccc32)CC1` [Compound 9, 1-({5-Chloro-1-[1-(ethanesulfonyl)piperidin-4-yl]-1H-1,3-benzodiazol-2-yl}methyl)-3,3-difluoro-2,3-dihydro-1H-indol-2-one], in the assay with RSV A2, 0709161v, the IC50 came to 12.6 nM.

`CC(C)CCn1c(CN2C(=O)C(F)(F)c3ccccc32)nc2cc(CN)ccc21` [Compound 13, 1-{[5-(Aminomethyl)-1-(3-methylbutyl)-1H-1,3-benzodiazol-2-yl]methyl}-3,3-difluoro-2,3-dihydro-1H-indol-2-one]: the IC50 with RSV A2, 0709161v turned out to be 4.1 nM.

As to `CS(=O)(=O)CCCn1c(CN2C(=O)C(F)(F)c3ccccc32)nc2cc(Cl)ccc21` [Compound 5, 1-{[5-Chloro-1-(3-methanesulfonylpropyl)-1H-1,3-benzodiazol-2-yl]methyl}-3,3-difluoro-2,3-dihydro-1H-indol-2-one], in the assay on RSV A2 VR-1540, the IC90 was 4.4 nM and the 50% inhibitory concentration (IC50) stood at 1.4 nM.

For the molecule `O=C1N(Cc2nc3cc(Cl)ccc3n2C2CCOCC2)c2ccccc2C1(F)F` [Compound 10, 1-{[5-Chloro-1-(oxan-4-yl)-1H-1,3-benzodiazol-2-yl]methyl}-3,3-difluoro-2,3-dihydro-1H-indol-2-one], in the assay on RSV A2 VR-1540, the IC90 was determined as 53 nM and the 50% inhibitory concentration (IC50) came out at 6.4 nM.
